Reference: patent US12686703B2, “Cosmetic tetrapeptide, composition and use” (Sederma, priority 2020, dated 2026)
Marks after values point to notes of the source that are not given here. Where a SMILES comes first, the peptide text is derived from it. The star is where a group is joined. Palmitoyl = CCCCCCCCCCCCCCCC(=O)*

What was measured:
Type in all cases: cell-based
[1] = tested on: whole hair follicles isolated from scalp explants; assay: Hair growth from hair follicle bulbs (isolated follicles in culture)
Description: Whole follicles (including the infundibulum, upper sheath, bulge, lower sheath, and bulb) are isolated by microdissection from scalp explants issued from surgery. On first day (DO), the hairs are placed individually in wells and keep alive at 37° C. in a humid atmosphere, enriched with 5% CO2, in an adapted culture medium.
Peptide solutions at 10 ppm and 5 ppm are prepared in the culture medium with 0.1% DMSO.
On D0, D3, D5 and D7, the peptide products are incorporated into the culture medium. The culture media are completely renewed for each treatment. The control cases receive no treatment other than renewal of the culture medium.
On day D0, the hairs are removed and stored frozen at −80° C. On D10, the hairs from each case are taken and treated in the same way.
A photograph of the isolated hairs is taken on DO to measure the hair from the bulb to the end of the hair shaft using an image analysis software. The photographs and length measurements are repeated on D3, D5, D7 and D10. The growth of each hair is monitored individually.
During the study, the hairs grow. To estimate the effect of the peptide, the average hair length between the peptide and the solvent control are compared, for each time (see below Table 5).

Collagen I (PIP) = assay: ELISA assay of collagen I synthesis (PIP assay) in normal human fibroblasts; details: concentrations of 5 to 15 ppm; NHF, 72 h contact; vs excipient; p < 0.01
Description: Normal human fibroblasts (NHF) in culture are brought into contact with the products to be tested or their excipient (negative control) for 72 h. At the end of the contact, the culture supernatants are removed, and the syntheses of the dermal macromolecules are estimated by ELISA assays. An estimate of cell viability is carried out by Hoechst assay to weight the obtained data.
Collagen I is evaluated via the PIP assay (carboxy-terminal propeptide of procollagen type I) which is a peptide fragment resulting from the enzymatic degradation of procollagen when the latter is excreted outside the fibroblast (therefore in the culture medium where the assay is carried out).

Fibrillin 1 = assay: Immunofluorescence assay of Fibrillin 1 formation in normal human fibroblasts; details: 8 ppm; NHF, five-day incubation; p < 0.05
Description: Normal human fibroblasts (NHF) are cultured for at least 24 hours in fibroblast growth medium containing serum. Once confluence was reached, the cells are seeded, and the actives and corresponding controls diluted in a culture medium are added. At the end of a five-day incubation period, the supernatant is removed, the cells are washed with PBS and fixed. The cells are then incubated with the primary Fibrillin 1 monoclonal antibody (11C1.3) (Thermo Fisher) diluted in blocking buffer at a concentration of 1:200. The cells are incubated. The primary antibody is removed, and the cells are washed with PBS. The secondary antibody was added at a dilution of 1:1000 in blocking buffer, then removed and the cells are washed with PBS. The formation of Fibrillin 1 by the cells is visualized using a fluorescence microscope. The obtained images are analyzed using an image processing software assigning a numerical value to the coverage density.

[2] = tested on: Hair Follicle Dermal Papilla Cells (HFDPC); assay: Proliferation study (EdU) on hair follicle dermal papilla cells; details: p < 0.01
Description: (§1) 2.1—Proliferation Studies on Cell Cultures (Hair Follicle Dermal Papilla Cells (HFDPC) and Outer Root Sheath Keratinocytes (ORSK))
(§2) The cells are seeded in adapted culture media and incubated for 24 h. Then the culture media are removed and changed for test media and cells are incubated. The cells are thereafter contacted with the peptide (diluted at different concentrations in DMSO) and with EdU (Ethynyldeoxyuridine), a thymidine-analogue nucleoside which is incorporate into the newly synthetized in proliferating cells. The cultures are stopped, and cells are labelled using a Edu detection kit.

[3] = tested on: Outer Root Sheath Keratinocytes (ORSK); assay: Proliferation study (EdU) on outer root sheath keratinocytes; details: 5 ppm, p < 0.01
Description: as §1, §2

## CCCCCCCCCCCCCCCC(=O)N[C@@H](CC(C)C)C(=O)N[C@@H](CC(C)C)C(=O)N[C@@H](C)C(=O)N[C@@H](CC(N)=O)C(=O)O [Pal-LLAN-OH, palmitoyl-leucyl-leucyl-alanyl-asparagine] (Palmitoyl-LLAN-OH)
[1]; 5 ppm, D3, nsd
  Growth variation compared to solvent control (0.1% DMSO): +21% (nsd)
[1]; 5 ppm, D5, p < 0.05
  Growth variation compared to solvent control (0.1% DMSO): +26%*
[1]; 5 ppm, D7, p < 0.01
  Growth variation compared to solvent control (0.1% DMSO): +32%**
[1]; 5 ppm, D10, p < 0.01
  Growth variation compared to solvent control (0.1% DMSO): +30%**
[1]; 10 ppm, D3, nsd
  Growth variation compared to solvent control (0.1% DMSO): +16% (nsd)
[1]; 10 ppm, D5, p < 0.05
  Growth variation compared to solvent control (0.1% DMSO): +28%*
[1]; 10 ppm, D7, p < 0.01
  Growth variation compared to solvent control (0.1% DMSO): +37%**
[1]; 10 ppm, D10, p < 0.01
  Growth variation compared to solvent control (0.1% DMSO): +38%**
Collagen I (PIP)
  Collagen I (PIP): +60%
Fibrillin 1
  Fibrillin 1: +108% (p < 0.05)
[2]; 5 ppm
  Cell proliferation variation % vs. control solvent (DMSO): +13.7%
[2]; 10 ppm
  Cell proliferation variation % vs. control solvent (DMSO): +22.15%
[3]
  Cell proliferation variation % vs. control solvent (DMSO): +55%
